Experimental data published in US20260242340A1, “COMPOUNDS AND METHODS FOR TREATING PROTEIN AGGREGATION DISEASES” (ACELOT, INC., priority 2023, published 2026).

Tests used:
[1] = target: TDP-43 peptide (amino acids 307-319) (Homo sapiens, UniProt Q13148); assay: TDP-43 thioflavin T assay; format: biochemical; conditions: ThT RFU at 15 hours; 100% = TDP-43 + DMSO
Method: The effect of compounds on fibril formation by TDP-43 peptide (amino acids 307-319) was screened using a thioflavin T (ThT) fluorescence assay in a 96-well plate format. The monomeric form of TDP-43 307-319 was stored in HFIP at −20° C. in 32 μL vials and then thawed on ice. After thawing a stock aliquot on ice, 16 μL of HFIP and 432 μL 100 mM ammonium acetate was added. This mix was pipetted three times. Three such prepared aliquots were combined to create a master mix. 400 μM of ThT stock was prepared by dissolving 31.8 mg ThT in 10 mL Milli-Q water to make […] stock. The 10 mM ThT stock was then diluted to 400 μM with Milli-Q water and stored at −20° C. until use. 20 μL aliquots of compounds were used as initial starting material. 98 μL of master mix was then added to each well of 96-well plate, and then 2 μL of compounds was added to each well testing a compound. The plate was spun at 4700×rpm to remove bubbles at 4° C., and then the plate measurements were collected. ThT fluorescence was measured through the bottom of the plate using 440- and 480-nm excitation and emission filters for 15 hours at 0.5-hour intervals. Each well was scanned at 5 points with a 1.25 mm distance between points. The relative fluorescence unit (RFU) at 15 hours was used to rank the percent of aggregation for all tested compounds.

[2] = target: T1, TDP-43 cytosolic aggregates (TDP-43-tGFP-U2OS cell line) (Homo sapiens, UniProt Q13148); assay: TDP-43 cytoplasmic aggregation assay; format: cell-based; conditions: 100 μM compound; TDP-43-tGFP-U2OS cells; lower = more potent
T1 construct: expressed in transfected cells; host or cells: U2OS (recombinant, IPTG-inducible TDP-43 expression)
Method: Recombinant TDP-43-tGFP-U2OS cell line was thawed (2×10^6 cells per T75) and was maintained in DMEM-F12 supplemented with 10% FBS at 37° C. in a humidified 5% CO2 atmosphere. Cells were plated in 96-well plates with a density of 10,000 cells (+/−2000 cells) per well. Cells were incubated with the test compounds and isopropyl β-D-1-thiogalactopyranoside (IPTG) 1 mM to induce TDP43 expression for 24 hours. The assays were carried out in triplicate. Cells were treated with 125-250 μM of sodium arsenite for 120 min and TDP-43 punctae formation was quantified in both cell cytoplasm and cell nucleus, in living cells. The nuclei were stained using Hoechst (0.5 μg/ml) and the fluorescence was measured using a Cell Insight High-Content Bioimager from Thermo Fisher. To detect the Hoechst, the filters used were 380/10 and 460/10 nm for excitation and emission, respectively, and to detect the TDP-43 punctae, the filters were 488/20 and 520/20 nm, respectively. The images were obtained with an objective of 20×. Cell quantification was performed delimitating the region of interest of the nuclei and after quantification the average of each triplicate was performed. For granule quantification the spot detector application from Cell Software delimitated 2 regions of interest, the nuclei and cytosol. This software quantified the average number of granules per nuclei and the average number of granules per cytosol in each well.

alpha-synuclein = target: T2, alpha-synuclein (Homo sapiens, UniProt P37840); assay: Alpha-synuclein thioflavin T assay; format: biochemical; conditions: 250 μM compound on pre-formed aggregates of 50 μM alpha-synuclein, 24 hours; 100% = alpha synuclein + DMSO
T2 construct: purchased Proteos RP-003
Method: Recombinant alpha-synuclein monomeric protein was procured from Proteos (catalog no. RP-003, 10 mg/ml or 700 μM concentration). Prior to aggregation, the protein was centrifuged at 10,000 rpm for 5 minutes to remove any pre-existing aggregates. The stock solution was then diluted to 50 μM concentration in filtered 1×PBS and allowed to aggregate with continuous shaking at 1000 rpm on a thermomixer for 96 hours at 37° C. After 96 hours, the ThT fluorescence was checked for the sample to confirm aggregate formation using ThT, a well-known amyloid marker dye. The ThT active aggregates were then used for high-throughput small molecule inhibitor screening. For screening small molecule disaggregators, 10 mM DMSO stock solutions of small molecules were diluted to 250 μM in the reaction mix containing 20 μM ThT and aggregates formed by 50 μM alpha-synuclein. As a positive/vehicle control, 100% DMSO stock was diluted to 2.5% to match the DMSO in the small molecule conditions. ThT fluorescence assay was performed for 24 hours with 3 replicates per sample in a 384 well plate (Corning low volume black/clear flat bottom) on a microplate reader (Molecular Devices SpectraMax iD5 or BioTek Agilent Synergy Neo2) using excitation wavelength of 440 nm and emission wavelength of 490 nm. The temperature was maintained at 37° C. and the plate was continuously shaken throughout the measurement. All data were plotted and analyzed in GraphPad Prism.

Aβ 1-42 = target: T3, Aβ 1-42 (Homo sapiens, UniProt P05067); assay: Aβ42 thioflavin T assay; format: biochemical; conditions: 50 μM compound, 5 μM Aβ 1-42, ThT RFU at 15 hours; 100% = Aβ + DMSO; read-out: Aβ42 % aggregation at 50 μM
T3 construct: The monomeric form of Aβ 1-42 (rPeptide, A1170-025) film; purchased rPeptide A1170-025
Method: The effect of compounds on fibril formation by Aβ 1-42 was screened using a thioflavin T (ThT) fluorescence assay in a 96-well plate format. The monomeric form of Aβ 1-42 (rPeptide, A1170-025) film was diluted with 10 mM NaOH to form a 1 mg/ml stock solution. This stock solution was then further diluted with cell culture grade water (Cytiva, SH30529.01) and 10×PBS (VWR, 97063-660) to a working concentration of 100 μM in 1×PBS on ice. Compounds were initially dissolved in 100% DMSO (MilliporeSigma, D2650) at room temperature to make a 10 mM stock and stored at −20° C. prior to the experiment. On the day of the experiment, the stock solution was diluted with 1×PBS to a concentration of 500 μM, containing 5% DMSO. The reaction mixture, containing 10 μM ThT […], 5 μM Aβ 1-42, and 1×PBS was prepared in 15 ml Falcon centrifuge tubes (Corning, 352070) and kept on ice during preparation. The reaction mixture was then dispensed into multiple wells of a 96-well half-area, low-binding polyethylene non-treated plate (Corning, 3880) with a clear bottom, at 90 μL per well. To each well, 10 μL of 500 μM compound stock was added, with three replicates per compound. To account for the presence of DMSO, 5% DMSO in 1×PBS was used as the vehicle control. The positive control consisted of 10 μM ThT, 5 μM Aβ 1-42, and 0.5% DMSO in 1×PBS, while the negative control consisted of 10 μM ThT and 0.5% DMSO in 1×PBS. The plates were sealed with polyester sealing tape (VWR, 89134-430) to prevent evaporation and then placed in a plate reader (Molecular Devices SpectraMax ID5) at 37° C. without agitation. ThT fluorescence was measured through the bottom of the plate using 440- and 480-nm excitation and emission filters for 15 hours at 0.5-hour intervals. Each well was scanned at 5 points with a 1.25 mm distance between points. The relative fluorescence unit (RFU) at 15 hours was used to rank the percent of aggregation for all tested compounds and controls.

T1 sequence (Q13148 whole entry): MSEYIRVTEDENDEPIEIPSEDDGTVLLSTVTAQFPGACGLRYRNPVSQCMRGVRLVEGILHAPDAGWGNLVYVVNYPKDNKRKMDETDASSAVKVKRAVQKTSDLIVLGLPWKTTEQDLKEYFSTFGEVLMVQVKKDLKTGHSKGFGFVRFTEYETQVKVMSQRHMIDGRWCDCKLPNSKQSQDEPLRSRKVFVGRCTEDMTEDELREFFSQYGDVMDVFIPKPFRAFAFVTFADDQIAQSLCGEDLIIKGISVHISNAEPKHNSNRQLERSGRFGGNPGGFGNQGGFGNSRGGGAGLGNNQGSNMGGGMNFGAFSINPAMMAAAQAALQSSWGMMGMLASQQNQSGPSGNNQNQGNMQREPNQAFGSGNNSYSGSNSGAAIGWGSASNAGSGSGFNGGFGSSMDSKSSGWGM
T3 sequence (P05067 672-713 limits assumed): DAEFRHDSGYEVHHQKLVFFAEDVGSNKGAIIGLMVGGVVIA

% aggregation TDP-43 ThT at 50 μM TDP-43 [1] [%] | % remaining TDP-43 cytosolic aggregates after 100 μM compound addition [2] [%] | % alpha synuclein aggregation as measured on ThT (alpha-synuclein) [%] | activity at 50 µM (Aβ 1-42) [%] | Structure (SMILES)
48.6 | – | – | – | CCc1cc(CCN2Cc3ccc(NC(C)=O)cc3C2)ccc1O [Compound 14, N-(2-(3-Ethyl-4-hydroxyphenethyl)isoindolin-5-yl) acetamide]
78.9 | >99.9 | 82.8 | > 99.9 | CC(=O)Nc1ccc2c(c1)CCN(CCc1ccccc1)C2 [Compound 3, N-(2-Phenethyl-1,2,3,4-tetrahydroisoquinolin-6-yl) acetamide]
48.8 | – | – | – | CC(=O)Nc1ccc2c(c1)CN(CCc1ccc(O)c(C)c1)C2 [Compound 13, N-(2-(4-Hydroxy-3-methylphenethyl)isoindolin-5-yl) acetamide]
73.1 | 93.7 | >99.9 | 59.7 | CC(=O)Nc1ccc2c(c1)CN(CCc1cccc(Cl)c1)CC2 [Compound 6, N-(2-(3-Chlorophenethyl)-1,2,3,4-tetrahydroisoquinolin-7-yl) acetamide]
43.5 | – | – | – | CC(=O)Nc1ccc2c(c1)CN(CCc1ccc(O)c(Cl)c1)C2 [Compound 12, N-(2-(3-Chloro-4-hydroxyphenethyl)isoindolin-5-yl) acetamide]
– | 59.1 | >99.9 | 74.6 | CNC(=O)c1ccc2c(c1)CCN(CCc1cccc(Cl)c1)C2 [Compound 4, 2-(3-chlorophenethyl)-N-methyl-1.2.3.4-tetrahydroisoquinoline-6-carboxamide]

Structure (SMILES) | % aggregation TDP-43 ThT at 50 μM TDP-43 [1] [%] | % remaining TDP-43 cytosolic aggregates after 100 μM compound addition [2] [%] | % alpha synuclein aggregation as measured on ThT (alpha-synuclein) [%] | activity at 50 µM (Aβ 1-42) [%]
Clc1cccc(CCN2CCc3ccccc3C2)c1 [Compound 5, 2-(3-chlorophenethyl)-1,2,3,4-tetrahydroisoquinoline] | 64.6 | 40.7 | 99 | –
CC(=O)N(C)c1ccc2c(c1)CN(CCc1ccc(O)c(Cl)c1)C2.Cl [Compound 15, N-(2-(3-Chloro-4-hydroxyphenethyl)isoindolin-5-yl)-N-methylacetamide hydrochloride] | 47.2 | – | – | –
